For test [1], the target named is T1, BTK (Homo sapiens (Human), UniProt Q06187). Nature of the test: Omnia assay for potency assessment against BTK. The format is biochemical. Conditions: for IC50: [BTK]=5 nM, Omnia assay, read-out: BTK Inhibition (IC50). As for the experimental part:
The modified BTK-optimized reagent conditions for the above protocol are:
[BTK]=5 nM, [ATP]=[…], [Y5-Sox]=[…] (ATP KMapp˜[…]).

A further test deals with ITK (Homo sapiens (Human), UniProt Q08881). Briefly: Omnia assay for potency assessment against active forms of ITK kinase. The format is biochemical. Conditions: [ITK]=10 nM, [ATP]=25, [Y6-Sox]=10 μM; read-out: ITK Inhibition. On the procedure: [ITK]=10 nM, [ATP]=25 [Y6-Sox]=10 μM (ATP KMapp=33 μM).
In a further test the target is EGFR T790M (Homo sapiens (Human), UniProt P00533, T790M). Nature of the test: EGFR mutant T790M inhibition assay. The format is biochemical. On the procedure: The Omnia Assay Protocol for potency assessment against EGFR is performed as described in Example 251 above except that the EGFR-WT- and EGFR T790M/L858R-modified optimized reagent conditions are: […]
Another test addresses ERBB1 (Homo sapiens (Human), UniProt P00533). Briefly: Z'-LYTE kinase inhibition, ErbB1. The test is classed as biochemical. As for the experimental part:
(§1) Compounds of the present invention were assayed as inhibitors of one or more of ErbB1, ErbB2, and/or ErbB4 in a manner substantially similar to the method described by Invitrogen Corp (Invitrogen Corporation, 1600 Faraday Avenue, Carlsbad, Calif., CA; http://www.invitrogen.com/downloads/Z-LYTE_Brochure_1205.pdf) using the Z'-LYTE™ biochemical assay procedure or similar biochemical assay. The Z'-LYTE™ biochemical assay employs a fluorescence-based, coupled-enzyme format and is based on the differential sensitivity of phosphorylated and non-phosphorylated peptides to proteolytic cleavage.

The next test deals with ERBB4 (HER4) (Homo sapiens (Human), UniProt Q15303). Briefly: Z'-LYTE kinase inhibition, ErbB4. The format is biochemical. As for the experimental part:
as §1

In a further test the target is EGFR-WT (Homo sapiens (Human), UniProt P00533). Nature of the test: Omnia assay for potency assessment against EGFR (WT).
The target of the next test is EGFR-T790M/L858R (Homo sapiens (Human), UniProt P00533, L858R/T790M). Nature of the test: Omnia assay for potency assessment against EGFR (T790M/L858R). Conditions: read-out: EGFR (T790M/L858R); EGFR mutant T790M/L858R.
Test [2] has as its target T1, BTK. Briefly: BTK Ramos cellular assay (PLCγ2 phosphorylation). Conditions: Ramos cells, 1 hour compound, anti-IgM stimulation, p-PLCγ2; read-out: BTK Inhibition (IC50), BTK Ramos cellular inhibition. The format is cell-based.
The target in test [3] is T1, BTK. Nature of the test: Mass spectrometry for BTK (intact protein). The test is classed as binding. Conditions: 1 hr, 10× fold excess of compound. As for the experimental part: Intact BTK was incubated for 1 hr at a 10× fold excess of I-7 to protein. Aliquots (2 μl) of the samples were diluted with 10 μl of 0.1% TFA prior to micro C4 ZipTipping directly onto the MALDI target using Sinapinic acid as the desorption matrix (10 mg/ml in 0.1% TFA:Acetonitrile 20:80).

The test system of test [4] is TI-2 independent B cell activation. Briefly: In vivo thymus-independent (TI-2) B cell activation. Conditions: C57/B6 mice, 100 mg/kg daily day 0 through 5, TNP-Ficoll, serum day 6.
The nature of the next test: PG-PS arthritis model. The format is in vivo. Conditions: female Lewis rats, oral gavage daily through day 22. On the procedure:
On day 0, female Lewis rats received an intraperitoneal (IP) bolus of peptidoglycan-polysaccharide (PG-PS) in an amount of 15 μg/g rat body weight. Baseline control rats received an IP bolus of PBS. The vehicle and treatment groups were dosed via oral gavage just prior to PG-PS administration. Treatment with vehicle and compound continued each day through day 22. Maximal lateral ankle width measurements of both rear limbs were collected with a caliper throughout the study. On day 23, study was terminated and the final change in ankle swelling was calculated and compared to vehicle controls.

Test [5] has as its target T1, BTK. Briefly: BTK occupancy from in vitro samples by ELISA (Ramos cells). The test is classed as cell-based. Conditions: ELISA with probe I-215. As for the experimental part:
(§2) In order to determine the amount of free BTK in cell or tissue lysates, an ELISA protocol was employed that utilizes a biotinylated probe compound that binds only to free, unoccupied BTK. The conjugated biotin is captured on a streptavidin-coated ELISA plate and detected with a mouse anti-BTK antibody (Becton Dickinson, Franklin Lakes, N.J., USA) and a secondary goat anti-mouse HRP antibody (Zymed, South San Francisco, Calif., USA).
All samples were prepared with equal concentrations of Biorad lysis buffer (Hercules, Calif., USA), 0.5% bovine serum albumin in PBS with 0.05% Tween-20 to give a final concentration of 1 μM I-215. Samples were incubated in a mixing plate for 1 hr at room temperature while shaking to allow probe compound I-215 to bind to free BTK. After incubation with I-215, samples were added to a washed, streptavidin-coated ELISA plate (Pierce, Rockford, Ill., USA) and incubated for 1 hr at room temperature while shaking. The plate was then washed with PBS containing 0.05% Tween-20 using an automatic plate washer. Anti-BTK antibody was prepared at 1:1000 dilution in 0.5% BSA in PBS (0.05% Tween-20) and added to the ELISA plate. The plate was incubated for 1 hr at room temperature while shaking. The plate was washed as described above and the secondary HRP antibody was prepared at 1:5000 dilution in 0.5% BSA in PBS (0.05% Tween-20). The plate was incubated and washed as described above. TMB was added to the plate, and OD650 was monitored until reaching 1 OD unit. The reaction was then stopped with addition of H2SO4. The plate was analyzed using Gen 5 software, and a 4 Parameter Logistic curve was employed to quantitate samples. Recombinant BTK (Invitrogen, Carlsbad, Calif., USA) was used for the standard curve.
A concentration designated as “A” is greater than 1 nM; a concentration designated as “B” is greater than 10 nM; and a concentration designated as “C” is greater than 50 nM.
In general terms: An ELISA detects its analyte on a solid surface through an enzyme-linked reagent.

For test [6], the target named is T1, BTK. Nature of the test: Human primary B cell covalent probe occupancy in vitro. The format is cell-based. Conditions: human primary B cells, 1 h at 37° C., probe I-215 ELISA. As for the experimental part: as §2
(§3) All samples were prepared with equal concentrations of Biorad lysis buffer (Hercules, Calif., USA), 0.5% bovine serum albumin in PBS with 0.05% Tween-20 to give a final concentration of 1 μM I-215. Samples were incubated in a mixing plate for 1 hr at room temperature while shaking to allow probe compound I-215 to bind to free BTK. After incubation with I-215, samples were added to a washed, streptavidin-coated ELISA plate (Pierce, Rockford, Ill., USA) and incubated for 1 hr at room temperature while shaking. […] TMB was added to the plate, and OD650 was monitored until reaching 1 OD unit. […] The plate was analyzed using Gen 5 software, and a 4 Parameter Logistic curve was employed to quantitate samples. […]
Human primary B cells were isolated as described in Example 256, then resuspended in RPMI media (10% serum). The compound to be analyzed was added at a 1:1000 dilution to media. […] The supernatant was analyzed as described in Example 283 using I-215.

Test [7] concerns the target BTK (Canis lupus familiaris, UniProt A0A8I3P3Z9). Briefly: Dog primary B cell covalent probe occupancy in vitro. The test is classed as cell-based. Conditions: canine PBMCs, one hour at 37° C., probe I-215 ELISA. On the procedure: as §2, §3
Canine whole blood (30 mL) was diluted to 50 mL total with 1×PBS and layered on top of Histopaque-1077 (Sigma Aldrich). […] The supernatant was analyzed as described in Example 283 using I-215. […]

A further test has as its system Human naïve B cells. Nature of the test: Human primary B cell proliferation assay. The format is cell-based. As for the experimental part:
Human naïve B cells were purified from 100 mL whole blood using a MACS purification kit designed to isolate CD19+, IgD+ cells by negative selection. Purified naïve B cells were resuspended in RPMI complete and stimulated with 5 μg/ml α-IgM for 72 hours. ^3H-Thymidine was included in the culture media for the final 16 h, cells were harvested and ^3H incorporation measured. Inhibition of B cell proliferation correlates with inhibition of BTK substrate phosphorylation after α-IgM stimulation.

Where two headings read alike, the source gives them in different places.

EGFR-WT, sequence (P00533 668-1210): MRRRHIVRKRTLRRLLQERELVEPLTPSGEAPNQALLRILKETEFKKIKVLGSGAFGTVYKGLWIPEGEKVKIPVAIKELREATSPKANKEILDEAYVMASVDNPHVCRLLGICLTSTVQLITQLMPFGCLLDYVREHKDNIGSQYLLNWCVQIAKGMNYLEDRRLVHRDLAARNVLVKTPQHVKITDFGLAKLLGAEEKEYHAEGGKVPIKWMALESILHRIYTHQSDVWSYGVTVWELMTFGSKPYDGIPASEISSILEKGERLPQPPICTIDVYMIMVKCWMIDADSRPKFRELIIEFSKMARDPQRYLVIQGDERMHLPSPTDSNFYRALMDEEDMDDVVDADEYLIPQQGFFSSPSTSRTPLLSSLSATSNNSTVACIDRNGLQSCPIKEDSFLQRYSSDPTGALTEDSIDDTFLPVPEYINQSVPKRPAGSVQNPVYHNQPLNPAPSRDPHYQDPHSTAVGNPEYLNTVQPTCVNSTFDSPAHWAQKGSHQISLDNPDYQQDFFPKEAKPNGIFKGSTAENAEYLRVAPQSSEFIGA
T1 sequence (Q06187 whole entry): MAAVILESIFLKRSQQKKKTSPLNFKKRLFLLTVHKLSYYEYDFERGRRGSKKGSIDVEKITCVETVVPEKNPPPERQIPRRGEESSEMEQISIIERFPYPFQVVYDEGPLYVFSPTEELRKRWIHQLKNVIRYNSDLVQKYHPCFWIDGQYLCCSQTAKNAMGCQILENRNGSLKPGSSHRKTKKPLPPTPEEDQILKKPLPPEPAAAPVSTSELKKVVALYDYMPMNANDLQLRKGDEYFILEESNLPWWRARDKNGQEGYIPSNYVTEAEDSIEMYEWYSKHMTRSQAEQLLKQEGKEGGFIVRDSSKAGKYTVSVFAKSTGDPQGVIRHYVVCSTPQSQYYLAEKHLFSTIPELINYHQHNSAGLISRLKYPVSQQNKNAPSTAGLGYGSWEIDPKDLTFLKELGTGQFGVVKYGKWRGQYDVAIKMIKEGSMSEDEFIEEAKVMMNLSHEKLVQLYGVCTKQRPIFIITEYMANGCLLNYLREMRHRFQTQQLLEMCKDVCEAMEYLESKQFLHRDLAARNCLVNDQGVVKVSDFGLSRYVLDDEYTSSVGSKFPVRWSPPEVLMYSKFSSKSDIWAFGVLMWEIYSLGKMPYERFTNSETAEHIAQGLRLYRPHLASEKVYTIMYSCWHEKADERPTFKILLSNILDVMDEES
EGFR-T790M/L858R, sequence (P00533 25-1210 T790M/L858R): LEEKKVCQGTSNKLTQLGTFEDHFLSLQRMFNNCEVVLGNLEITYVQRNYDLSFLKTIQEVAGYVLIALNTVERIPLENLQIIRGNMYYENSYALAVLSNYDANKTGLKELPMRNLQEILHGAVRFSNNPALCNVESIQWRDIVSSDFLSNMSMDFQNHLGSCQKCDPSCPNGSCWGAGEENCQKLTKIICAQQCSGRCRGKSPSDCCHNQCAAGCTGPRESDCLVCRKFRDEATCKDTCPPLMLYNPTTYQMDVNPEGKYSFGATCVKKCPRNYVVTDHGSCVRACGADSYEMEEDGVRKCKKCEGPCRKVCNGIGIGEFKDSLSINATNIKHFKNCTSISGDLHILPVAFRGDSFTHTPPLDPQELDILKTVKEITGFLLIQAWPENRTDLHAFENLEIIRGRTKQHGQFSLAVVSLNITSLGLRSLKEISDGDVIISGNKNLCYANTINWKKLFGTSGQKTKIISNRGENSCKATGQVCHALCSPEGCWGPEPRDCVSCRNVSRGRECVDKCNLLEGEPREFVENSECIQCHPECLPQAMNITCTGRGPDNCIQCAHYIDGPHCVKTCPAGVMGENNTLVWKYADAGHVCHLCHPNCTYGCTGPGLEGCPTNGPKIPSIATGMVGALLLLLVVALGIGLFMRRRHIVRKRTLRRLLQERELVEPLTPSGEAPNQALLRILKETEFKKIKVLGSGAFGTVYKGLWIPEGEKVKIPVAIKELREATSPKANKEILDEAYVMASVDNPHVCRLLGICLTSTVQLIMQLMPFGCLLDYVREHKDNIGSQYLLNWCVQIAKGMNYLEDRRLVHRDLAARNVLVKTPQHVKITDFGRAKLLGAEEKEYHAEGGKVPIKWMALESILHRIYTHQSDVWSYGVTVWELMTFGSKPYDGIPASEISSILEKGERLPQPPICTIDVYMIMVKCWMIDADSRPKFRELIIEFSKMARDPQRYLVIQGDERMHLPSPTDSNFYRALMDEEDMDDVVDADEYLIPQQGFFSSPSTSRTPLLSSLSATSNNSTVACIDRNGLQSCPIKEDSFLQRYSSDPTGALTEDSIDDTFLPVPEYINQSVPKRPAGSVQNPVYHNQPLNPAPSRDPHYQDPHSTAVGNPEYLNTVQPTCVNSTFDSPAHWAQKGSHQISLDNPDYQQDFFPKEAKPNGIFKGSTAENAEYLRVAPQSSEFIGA
ITK, sequence (Q08881 whole entry): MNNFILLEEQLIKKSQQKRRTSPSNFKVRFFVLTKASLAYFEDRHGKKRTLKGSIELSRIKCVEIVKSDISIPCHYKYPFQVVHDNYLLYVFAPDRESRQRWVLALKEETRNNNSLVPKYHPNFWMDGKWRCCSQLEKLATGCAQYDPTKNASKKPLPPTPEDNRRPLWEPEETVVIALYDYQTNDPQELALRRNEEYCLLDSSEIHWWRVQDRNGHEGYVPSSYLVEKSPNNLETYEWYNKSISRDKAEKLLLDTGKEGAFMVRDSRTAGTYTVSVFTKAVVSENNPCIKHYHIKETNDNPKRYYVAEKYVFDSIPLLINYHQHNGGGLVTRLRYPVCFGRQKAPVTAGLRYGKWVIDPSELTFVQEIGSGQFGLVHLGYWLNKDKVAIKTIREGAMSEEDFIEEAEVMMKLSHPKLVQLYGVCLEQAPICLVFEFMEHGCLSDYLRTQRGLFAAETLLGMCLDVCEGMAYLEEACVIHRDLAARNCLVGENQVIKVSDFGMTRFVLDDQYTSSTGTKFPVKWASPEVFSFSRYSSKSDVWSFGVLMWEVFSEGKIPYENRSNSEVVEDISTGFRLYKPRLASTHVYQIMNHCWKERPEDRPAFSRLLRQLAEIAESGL
EGFR T790M, sequence (P00533 25-1210 T790M): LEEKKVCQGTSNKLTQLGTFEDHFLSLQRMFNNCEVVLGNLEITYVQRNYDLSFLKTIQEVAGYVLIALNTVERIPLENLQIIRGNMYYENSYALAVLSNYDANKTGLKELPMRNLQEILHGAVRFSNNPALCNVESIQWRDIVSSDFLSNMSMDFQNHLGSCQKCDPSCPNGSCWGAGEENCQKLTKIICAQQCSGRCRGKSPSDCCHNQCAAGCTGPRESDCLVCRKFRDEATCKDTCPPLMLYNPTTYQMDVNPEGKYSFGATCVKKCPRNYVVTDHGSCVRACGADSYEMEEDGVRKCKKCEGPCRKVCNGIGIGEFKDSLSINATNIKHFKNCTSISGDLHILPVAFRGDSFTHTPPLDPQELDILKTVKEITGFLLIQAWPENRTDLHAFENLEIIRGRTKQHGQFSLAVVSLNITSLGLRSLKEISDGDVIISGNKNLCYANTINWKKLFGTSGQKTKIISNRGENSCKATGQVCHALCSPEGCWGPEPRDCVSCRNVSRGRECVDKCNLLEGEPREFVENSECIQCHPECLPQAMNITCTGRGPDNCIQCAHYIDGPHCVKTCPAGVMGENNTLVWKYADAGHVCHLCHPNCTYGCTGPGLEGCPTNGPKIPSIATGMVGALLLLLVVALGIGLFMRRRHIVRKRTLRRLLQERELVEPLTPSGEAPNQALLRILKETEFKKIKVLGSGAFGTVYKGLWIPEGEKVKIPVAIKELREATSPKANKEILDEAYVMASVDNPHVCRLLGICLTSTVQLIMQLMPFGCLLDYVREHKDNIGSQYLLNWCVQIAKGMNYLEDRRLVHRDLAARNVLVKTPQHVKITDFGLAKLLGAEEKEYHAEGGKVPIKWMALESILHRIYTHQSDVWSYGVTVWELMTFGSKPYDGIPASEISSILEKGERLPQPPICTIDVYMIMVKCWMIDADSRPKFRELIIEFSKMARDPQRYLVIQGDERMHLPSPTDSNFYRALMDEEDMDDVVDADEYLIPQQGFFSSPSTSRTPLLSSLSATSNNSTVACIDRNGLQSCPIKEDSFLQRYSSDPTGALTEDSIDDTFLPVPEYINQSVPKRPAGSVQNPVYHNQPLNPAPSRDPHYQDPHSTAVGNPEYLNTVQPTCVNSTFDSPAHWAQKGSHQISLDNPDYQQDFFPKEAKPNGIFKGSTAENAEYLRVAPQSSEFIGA
BTK (Canis lupus familiaris, UniProt A0A8I3P3Z9), sequence (A0A8I3P3Z9 1-664): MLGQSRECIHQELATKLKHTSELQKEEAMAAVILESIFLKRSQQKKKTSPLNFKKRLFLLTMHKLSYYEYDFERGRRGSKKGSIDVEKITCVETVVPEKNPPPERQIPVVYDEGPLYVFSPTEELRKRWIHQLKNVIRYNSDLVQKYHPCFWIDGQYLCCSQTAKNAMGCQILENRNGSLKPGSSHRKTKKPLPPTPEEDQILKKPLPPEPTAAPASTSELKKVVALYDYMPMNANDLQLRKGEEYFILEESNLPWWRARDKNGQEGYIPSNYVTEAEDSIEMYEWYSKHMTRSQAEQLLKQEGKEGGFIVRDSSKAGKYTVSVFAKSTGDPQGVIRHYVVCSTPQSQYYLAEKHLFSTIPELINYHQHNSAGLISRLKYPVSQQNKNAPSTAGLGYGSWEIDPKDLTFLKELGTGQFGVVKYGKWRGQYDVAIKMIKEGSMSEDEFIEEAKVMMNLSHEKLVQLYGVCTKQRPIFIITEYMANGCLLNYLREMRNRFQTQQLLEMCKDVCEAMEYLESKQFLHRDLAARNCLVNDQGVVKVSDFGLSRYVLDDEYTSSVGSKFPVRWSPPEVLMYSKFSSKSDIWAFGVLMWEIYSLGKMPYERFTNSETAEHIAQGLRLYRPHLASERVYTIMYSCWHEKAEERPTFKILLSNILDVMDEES

Consider `C=CC(=O)Nc1ccc(C)c(Nc2nccc(-c3cccnc3)n2)c1` [Compound I-56, N-(4-methyl-3-(4-(pyridin-3-yl)pyrimidin-2-ylamino)phenyl) acrylamide], for which the IC50 on BTK [1] is 100 to 1000 nM; on ITK, 100 to 1000 nM; at EGFR T790M, 10 to 100 nM; against ERBB1 it was 2230 nM; against ERBB4 (HER4), 2170 nM; at EGFR-WT, 10 to 100 nM. On EGFR-T790M/L858R, the IC50 was below 10 nM.

With `C=CC(=O)Nc1cccc(Nc2nc(Nc3ccc(OCCOC)c(F)c3)ncc2F)c1` [Compound I-96, N-(3-(2-(3-fluoro-4-(2-methoxyethoxy)phenylamino)-5-fluoropyrimidin-4-ylamino)phenyl)acrylamide], the IC50 was below 10 nM on BTK [1]; below 10 nM at BTK [2]; 10 to 100 nM at ITK; below 10 nM on EGFR T790M; 10 to 100 nM against EGFR-WT; below 10 nM on EGFR-T790M/L858R. For the same compound, the “covalent modification of BTK (mass spectrometry)” value at BTK [3] is “completely modify”. Moreover, in test [4], the “% Inhibition IgG3 (1:100)” value turned out to be 37.2%. In addition, the “% Inhibition IgM (1:1600)” value in test [4] was 43%. Moreover, the “% inhibition ankle swelling” value in “PG-PS arthritis model” was found to be 82.8%. In addition, the “>50% occupancy (concentration at which >50% of BTK is occupied)” value on BTK [5] was “A (greater than 1 nM)”. Besides, the “>90% occupancy (concentration at which >90% of BTK is occupied)” value on BTK [5] is “B (greater than 10 nM)”. For the same compound, the “concentration at which at least 50% of BTK is occupied” value at BTK [6] and at BTK [7] was “greater than 10 nM” throughout.

As for `C=CC(=O)Nc1cccc(Nc2nc(Nc3ccc(OCCOC)cc3)ncc2F)c1` [Compound I-182, N-(3-(5-fluoro-2-(4-(2-methoxyethoxy)phenylamino)pyrimidin-4-ylamino)phenyl)acrylamide], the “covalent modification of BTK (mass spectrometry)” value on BTK [3] was “completely modify”. For the same compound, in test [4], the “% Inhibition IgG3 (1:100)” value was 40% and the “% Inhibition IgM (1:1600)” value is listed as 25%. Besides, on ITK, the IC50 lay in the range of 10 to 100 nM. Further, on BTK [5], the “>50% occupancy (concentration at which >50% of BTK is occupied)” value is “A (greater than 1 nM)” and the “>90% occupancy (concentration at which >90% of BTK is occupied)” value was “C (greater than 50 nM)”. On BTK [6], the “concentration at which at least 50% of BTK is occupied” value is “greater than 10 nM”. Further, the IC50 at EGFR-WT (read-out: EGFR (wild type inhibition), EGFR wild type) is below 10 nM.

Turning to `CCC(=O)Nc1cccc(Nc2nc(Nc3ccccc3)ncc2C)c1` [I^R-7, N-(3-(5-methyl-2-(phenylamino)pyrimidin-4-ylamino)phenyl) propionamide], on BTK [1], the “biochemical activity against BTK” value is “biochemically inactive”. For the same compound, the IC50 at BTK [1] fell in the range of 100 to 1000 nM; at EGFR-WT, 1000 to 10000 nM; at EGFR-T790M/L858R it was 1000 to 10000 nM. Moreover, the “activity in the naïve B cell proliferation assay” value in the test with Human naïve B cells is “not active”.
